Assay results taken from ChEMBL document CHEMBL3045662, “Synthesis of quinolactacide via an acyl migration reaction and dehydrogenation with manganese dioxide, and its insecticidal activities” (2006).
Activity calls are given as the source filed them. No cut-off for these calls is given here.

Tests used:
Plutella xylostella = test: Insecticidal activity against third-instar larvae of Plutella xylostella (diamondback moth) in six-leaf stage of cabbage plant assessed as mortality at 500 ppm sprayed over two excised leaf squares after 2 days; type: functional; conditions: 48 h
Bemisia argentifolii = test: Insecticidal activity against Bemisia argentifolii assessed as mortality at 500 ppm; type: functional, organism-based
Spodoptera litura = test: Insecticidal activity against Spodoptera litura assessed as mortality at 500 ppm; type: functional, organism-based
[1] = tested on: Frankliniella occidentalis; test: Insecticidal activity against Frankliniella occidentalis (western flower thrips) assessed as mortality at 500 ppm; type: functional, organism-based
Tetranychus urticae = test: Insecticidal activity against Tetranychus urticae (two-spotted spider mite) in primary leaf stage of bean plant assessed as mortality at 500 ppm after 2 days; type: functional; conditions: 48 h

O=C1c2c([nH]c3ccccc3c2=O)-c2cccn21 [QUINOLACTACIDE]
mortality at 500 ppm (Plutella xylostella): 100%
mortality (Bemisia argentifolii): inactive
mortality (Spodoptera litura): inactive
mortality [1]: inactive
mortality at 500 ppm (Tetranychus urticae): 42%
